In brackets after ≈: the same amount, converted by molar mass. Several values for one entry are separate records, joined by “and”; a condition that tells them apart may be missing. Identical values can stand only once.
System: Mycobacterium tuberculosis
Format: cell-based

| Compound | Minimum inhibitory concentration |
| --- | --- |
| Cc1nnc(SCC2=C(C(=O)O)N3C(=O)[C@@H](NC(=O)Cn4cnnn4)[C@H]3SC2)s1 [Cefazolin] | 125 µg/mL and 250 µg/mL |
| O=C(Cc1cccs1)N[C@@H]1C(=O)N2C(C(=O)[O-])=C(C[n+]3ccccc3)CS[C@H]12 [Cephaloridine] | 63 µg/mL (≈ 152 µM) |

From patent US4100346A, “Certain 7(o-amino-methyl- or methylaminomethylphenyl- or cyclohexadienyl- or thienylacetamide)-3[1-carboxymethyl-(or ethyl- or propyl-)-tetrazol-5-ylthiomethyl]-3-cephem-4-carboxylic acids” (Bristol-Myers Company, priority 1976, dated 1978)
